In assay [1] the target is T1, WT SK4 channels (Homo sapiens, UniProt O15554).
T1 construct: expressed in transfected cells; host or cells: CHO cells
The assay can be described thus: Inside-out macro-patch recording of WT SK4 channels in transfected CHO cells. It is filed as cell-based. To be noted: internal application after PIP2 depletion by PLL, 1 μM free-Ca2+; read-out: EC50 of activation of WT SK4 channels. Here is the method: Inside-out macro-patch recording: To measure the Ca^2+ concentration dependence for SK4 channel activation, CHO cells were co-transfected with plasmids encoding WT SK4 (1 μg) and WT CaM (1 μg) using the Lipofectamine reagent at a ratio of 1:2. The cells were transfected 48 hours prior to recordings. The patch pipettes were pulled and fire-polished with a MF-900 micro-forge (Narashige) to reach an internal diameter of […]. The resistance of the patch electrodes ranged from 2-3 MΩ. The pipette solution contained 135 mM KCl, 1 mM MgSO4, 0.91 mM CaCl2, and 10 mM HEPES at pH 7.3. The bath solution contained 135 mM KCl, 5 mM EGTA, and 10 mM HEPES at pH 7.3. EGTA was used to titer the different Ca^2+ concentration solutions, calculated using the software by C. Patton of Stanford University (http://maxchelator(dot)stanford(dot)edu/). Currents were recorded by 10 repetitive 1 second duration voltage ramps from −100 mV to +100 mV from a holding potential of 0 mV. The current amplitudes in response to increasing Ca^2+ concentrations were normalized to those obtained at a saturating Ca^2+ concentration (3 μM). Furthermore, to determine the Ca^2+ concentration dependence for activation in the presence of a tested compound, such as the exemplary compound BA6b9 (10 μM), the current amplitudes were normalized to those obtained at large maximal Ca^2+ concentration of 10 μM. For PIP2-dependent activation, PIP2 affinity to the SK4 channel was also examined in the inside-out configuration. The dose-response curve for PIP2 was measured with increasing concentrations of diC8-PIP2 in the presence of 1 μM Ca^2+. The diC8-PIP2 effect on the channel current was measured after complete depletion of the native PIP2 using sonicated poly-L-lysine (PLL) 50 μg/ml and a subsequent 2-minute washout. […] Apparent EC50 values for Ca^2+ or diC8-PIP2 were determined by fitting the data points to a standard dose-response curve Y=100/(1+10^(log EC(50)−X)*HillSlope).
The calcium dependence of the human SK4 K^+ channel in transfected CHO cells was characterized using inside-out macro-patches. The expressed currents were recorded in response to voltage ramps (−100 millivolt (mV) to +100 mV for 1 seconds) and by increasing the free-Ca^2+ concentrations applied to the internal face of the membrane. […]
To examine whether PIP2 is involved in the modulation of the SK4 channel, channel trafficking to the plasma membrane was increased by co-transfecting CHO cells with plasmid DNAs encoding for the channel and for wild type (WT) CaM. The resulting currents were recorded from inside-out macro-patches, where the intracellular solution contained a saturating concentration of 1 μM free-Ca^2+, as shown in FIG. 1B (see, black plot).

Assay [2] addresses WT SK2 channels (Rattus norvegicus, UniProt P70604). To be noted: Zhang et al., Nat Chem Biol (2014); cited from earlier work.
Assay [3] deals with T2, human SK4 (Homo sapiens, UniProt O15554).
T2 construct: expressed in transfected cells; host or cells: CHO cells
The assay can be described thus: Whole-cell patch-clamp of WT SK4 K+ currents in transfected CHO cells. It is filed as cell-based. To be noted: WT SK4 currents in absence and presence of 20 μM compound. As for the experimental part:
Constructs: For CHO cell transfection, the following were cloned: human SK1, rat SK2, human SK3, and rat calmodulin into the pcDNA3 vector, human SK4 into pEGFP-C1 vector, and PIP4,5-kinase into an IRES-dsRed plasmid. The mutations were introduced using the PCR-based QuikChange™ site-directed mutagenesis (Stratagene®) and were verified by full sequencing of the entire plasmid vector.
Cell Culture and Transfection: Chinese hamster ovary (CHO) cells were grown in Dulbecco's modified Eagle's medium supplemented with 2 millimolar (mM) glutamine, 10% fetal calf serum, and antibiotics. In brief, 40,000 cells seeded on poly-L-lysine-coated glass coverslips (13 millimeter (mm) in diameter) in a 24-multiwell plate were transfected with 0.5 microgram (μg) pEGFP-SK4/0.5 μg mutant SK4, 1.2 μg dsRed-PIP4,5-kinase or with 1 μg SK1/SK2/SK3 together with pIRES-CD8 (0.3 μg) as a marker for transfection. Transfection was performed using TransIT-LT1 Transfection Reagent (Mirus Bio) according to the manufacturer's protocol. For electrophysiology, transfected cells were visualized approximately 40 hours after transfection with a Zeiss Axiovert 35 inverted florescence microscope.
Whole-cell patch-clamp recording: Voltage-clamp recordings were performed using the whole-cell configuration of the patch-clamp technique. Signals were amplified using an […] patch-clamp amplifier (Molecular Devices), sampled at 5 kHz and filtered at 2.4 kHz via a four pole Bessel low pass filter. Data were acquired using pClamp™ 10.5 software in conjunction with an Axon™ DigiData® 1440A interface (Molecular Devices). The patch pipettes were pulled from borosilicate glass (Harvard Apparatus) with a resistance of 3-5 megaohms (MΩ). The intracellular pipette solution contained 130 mM KCl, 5 mM EGTA, 10 mM HEPES, pH 7.3 (adjusted with KOH), and CaCl2 calculated for a final concentration of 1 μM free-Ca^2+, by MAXCHELATOR (WEBMAXC STANDARD) software, with sucrose added to adjust osmolarity to 290 mosM. The external solution (310 mosM) contained 140 mM NaCl, 4 mM KCl, 1.8 mM CaCl2, 1.2 mM MgCl2, 11 mM glucose, and 5.5 mM HEPES adjusted with NaOH to pH 7.3. CHO cells were held at −90 millivolt (mV) and SK4 K^+ currents were activated using a voltage ramp protocol from −100 mV to +60 mV for 150 milliseconds. Electrophysiological data analysis was performed using the Clampfit program (pClamp™ 10.5; Molecular Devices).
Some of the compounds were tested by comparing trace of WT SK4 channel currents in the absence and presence of 20 μM of the tested compound.

Assay [4] deals with T2, human SK4. The description is as above. The class given is cell-based. Particulars: 10 μM.

“Also recorded” adds a separate entry of the source.

In the case of `CCCCCCCC(=O)OC[C@H](COP(=O)(O)O[C@@H]1[C@H](O)[C@H](O)[C@@H](OP(=O)(O)O)[C@H](OP(=O)(O)O)[C@H]1O)OC(=O)CCCCCCC` [diC8-PIP2, dioctanoyl, phosphatidylinositol 4,5 bisphosphate, reference compound], the figures for the EC50 in assay [1] and in assay [2] were 154 nM and 1900 nM, respectively.

As for `O=c1[nH]c2cc(Cl)c(Cl)cc2[nH]1` [BA40, 5,6-dichloro-1,3-dihydro-2H-benzo[d]imidazol-2-one], the “SK4 K+ channel modulating activity” value in assay [3] was “activated; also recorded: activation; also recorded: Activator”. The “activation (increase) of WT SK4 current” value in assay [4] amounted to 42%. Also, the “activation of SK4 channel (fold)” value in assay [4] (representative trace) is “about 1.4 fold”.

On to `O=c1[nH]c2ccc(Br)cc2[nH]1` [BA100, 5-bromo-1,3-dihydro-2H-benzo[d]imidazol-2-one], for which, in assay [3], the “SK4 K+ channel modulating activity” value is reported as “activated; also recorded: activation; also recorded: Activator”. In addition, the “activation (increase) of WT SK4 current” value in assay [4] is listed as 28%.

Source of the values: US20240366571A1, “MODULATORS OF SK4 POTASSIUM CHANNEL AND USES THEREOF” (Ramot at Tel-Aviv University Ltd., priority 2022, published 2024).
